According to PMC12598866, “A Comparative Study of Virucidal and Virustatic Multivalent Entry Inhibitors” (The Journal of Physical Chemistry. B, 2025):
Where two headings read alike, the source gives them in different places.

Tests used:
[1] = Cytotoxicity assay on Vero cells (MTS); format: cell-based; conditions: African green monkey
Method: Cytotoxicity assay was performed on the Vero cell line with the MTS assay. The cells were plated for 24 h in DMEM medium containing 10% FBS and 1% penicillin/streptomycin with a seeding density of 2 × 10^4 per well in a 96-well plate. […] Then, the cells were washed with PBS twice, followed by the addition of 20 μL MTS reagents together with 80 μL DMEM medium. They were then incubated at 37 °C for 4 h. The cell viability was checked by absorbance at 490 nm with a plate reader.

HSV-2 [2] = experiment: HSV-2 virucidal assay; format: cell-based, herpes simplex virus type 2; conditions: virucidal titration at 90–99% viral inhibition concentration, Vero cells
[3] = biological target: glycoprotein D (gD) of HSV; experiment: Isothermal titration calorimetry with glycoprotein D; format: binding; conditions: ITC, 25°C
Method: Isothermal titration calorimetry (ITC) experiments were conducted using ITC200 instruments (GE Healthcare, USA) equipped with a 200 μL sample cell and a 40 μL syringe. Thirteen injections were applied. The first data point was excluded. BSA protein and viral protein concentrations in the cell were approximately 50 μM and 1 mg/mL, respectively, and ligand concentrations in the syringe were roughly 2 mM. They were centrifuged at 2000g for 2 min to remove bubbles. The titration was performed at 25 or 37 °C, with data analyzed using MicroCal PEAQ ITC software. Baseline correction was applied, and Nitpic/Sedphat was used for automated integration to ensure precise binding parameter determination.

HSV-2 [4] = experiment: HSV-2 inhibition assay (plaque reduction on Vero cells, pretreatment); format: cell-based, herpes simplex virus type 2; conditions: for IC50: Human alphaherpesvirus 2, Vero, dose–response, Vero cells; for IC99: HSV-2 inhibition, concentration intended to inhibit infection by at least 90 and 99%
Method: The inhibitory effect of compounds on HSV-2 was evaluated by plaque reduction assay. Vero cells were plated 24 h before the experiment in 24-well plates with a seeding density of 10^5 cells/well. Serial dilutions of compounds in DMEM medium (2% FBS, 1% P/S) were prepared, followed by the addition of aliquots of HSV-2 such that the final titer of the virus was 200 pfu/mL (with MOI = 0.0005). Compounds/virus mixtures were incubated at 37 °C for 1 h and added to the cells (250 μL/well). Followed by incubation at 37 °C for 1 h, the viral inoculum was removed. The cells were overlaid with DMEM medium containing 1.2% methylcellulose, 2% FBS, and 1% P/S. After 48 h of incubation at 37 °C, 5% CO2, the cells were fixed and stained with 0.1% crystal violet in 20% ethanol. Finally, the plaques were counted. Each group of experiments in the inhibition assay was performed in triplicate. The concentration producing a 50% reduction in plaque formation was determined using Prism 10 software (GraphPad Software, USA) by comparing compound-treated and untreated cells. Infectivity was calculated as the number of plaques in compound-treated cells/number of plaques in untreated cells × 100%.

H1N1 clinical = experiment: Influenza inhibition assay (ICC on MDCK cells); format: cell-based; conditions: Influenza A virus, dose–response
Flu B = experiment: Influenza inhibition assay (ICC on MDCK cells); format: cell-based; conditions: dose–response
[5] = Cytotoxicity assay for MDCK (MTT); format: cell-based; conditions: dog, MDCK cells
Method: MTT assay was used to evaluate the cytotoxicity on MDCK cells. 10^4 cells per well were seeded in a 96-well plate 1 day before the assay. A dose range of each drug (from 4.11 μM to 1000 μM) was added to the cells in serum-free medium for MDCK cells. The antivirals were incubated on the cells for 24 h at 37 °C. After incubation, the cells were washed, and MTT reagent (Promega) was added to the cells for 4 h at 37 °C according to the manufacturer’s instructions. The cells were then washed, and 50 μL of DMSO was added to free the reagent. Subsequently, the absorbance was read at 579 nm. Percentages of viability were calculated by comparing the absorbance in treated wells and untreated conditions.

[6] = Partition coefficient octanol/water (UV-vis); format: physicochemical
Method: UV–vis spectroscopy was employed first to determine the correct dilution of all compounds. The seven compounds in this study were B3C11SO4, B3C11SO3, B3C6SO3, B3C6SO4, C4C11SO4, C4C11SO3, and C4C3SO3. The protocol is the same for all the compounds: in the beginning, all compounds were dissolved in water at a concentration of 1 mg/mL. The solution was put into a quartz cuvette and then into the UV–vis spectrometer, where the absorbance from wavelengths 600 to 190 nm was investigated. All of the samples presented a peak in absorbance around 200 nm. The samples were diluted further until the absorbance peak reached values near 0.90.
A biphasic solution composed of 1.5 mL of a water solution of antiviral +1.5 mL of octanol was thoroughly mixed for 60 min. After the mixing, the two phases were separated by centrifugation for 1 min using a benchtop centrifuge at 5000 rpm. The water phase saturated in octanol and the octanol phase saturated with water were extracted and characterized by UV–vis spectrometry.
The partition coefficient (log P) was then calculated using formula : logP=log(Absorbanceofoctanolphase/Absorbanceofwaterphase) 1

HSV-2 [7] = experiment: Growth of viruses in the presence of compounds (posttreatment), HSV-2; format: cell-based, herpes simplex virus type 2; conditions: posttreatment condition, Vero cells
BSA = biological target: T1, BSA (Bos taurus, UniProt P02769); experiment: Isothermal titration calorimetry with BSA; format: binding, bovine; conditions: ITC, H2O
T1 construct: purchased Sigma-Aldrich

HSV-2 [8] = experiment: HSV-2 inhibition assay (plaque reduction on Vero cells, pretreatment); format: cell-based, herpes simplex virus type 2; conditions: Human alphaherpesvirus 2, Vero, pretreatment condition
H3N2 = experiment: Influenza inhibition assay (ICC on MDCK cells, pretreatment); format: cell-based; conditions: Influenza A virus
H1N1N09 = experiment: Influenza inhibition assay (ICC on MDCK cells); format: cell-based, Influenza A/Netherlands/602/2009 (H1N1); conditions: Influenza A virus, dose–response
[9] = CMC assay (conductivity method); format: physicochemical; conditions: in water
Method: The CMC of antiviral compounds was measured by the conductivity method. Antiviral compounds were diluted into water at different concentrations, and the conductivity (μS/cm) was measured at each concentration with a conductivity meter (Mettler Toledo, Switzerland). The CMC was identified as the point on the conductivity-concentration plot where the slope changed.

HSV-1 [10] = tested on: HSV-1
HSV-1 [11] = experiment: HSV-1 inhibition assay (plaque reduction on Vero cells); format: cell-based, herpes simplex virus type 1; conditions: Human alphaherpesvirus 1, dose–response
Method: The inhibitory effect of compounds on HSV-1 was evaluated by plaque reduction assay. Vero cells were plated 24 h before the experiment in 24-well plates at a density of 10^5 cells/well. Serial dilutions of compounds in DMEM medium (2% FBS, 1% P/S) were prepared, followed by the addition of aliquots of HSV-1 such that the final titer of the virus is […] (with MOI = 0.0005). Compounds/virus mixtures were incubated at 37 °C for 1 h and added to the cells (250 μL/well). Followed by incubation at 37 °C for 1 h, the viral inoculum was removed. The cells were overlaid with DMEM medium containing 1.2% methylcellulose, 2% FBS, and 1% P/S. After 3 days of incubation at 37 °C, 5% CO2, the cells were fixed and stained with 0.1% crystal violet in 20% ethanol, and plaques were counted. Each group of experiments in the inhibition assay was performed in triplicate. The concentration producing a 50% reduction in plaque formation was determined using the Prism 10 software (GraphPad Software, USA) by comparing compound-treated and untreated cells. Infectivity was calculated as the number of plaques in compound-treated cells/number of plaques in untreated cells × 100%.

HSV-2 [12] = tested on: HSV-2; parameters: method as in Zhu et al., 2024 (citation number not given); conditions: earlier paper of the authors on benzene-core MEIs; ref Zhu et al., 2024 (citation number not given); read-out: IC50 against HSV-2; cited from earlier work
[13] = dose–response, read-out: IC50 H3N2
[14] = pretreatment condition, read-out: pretreatment IC50, H3N2

T1 sequence (P02769 25-607): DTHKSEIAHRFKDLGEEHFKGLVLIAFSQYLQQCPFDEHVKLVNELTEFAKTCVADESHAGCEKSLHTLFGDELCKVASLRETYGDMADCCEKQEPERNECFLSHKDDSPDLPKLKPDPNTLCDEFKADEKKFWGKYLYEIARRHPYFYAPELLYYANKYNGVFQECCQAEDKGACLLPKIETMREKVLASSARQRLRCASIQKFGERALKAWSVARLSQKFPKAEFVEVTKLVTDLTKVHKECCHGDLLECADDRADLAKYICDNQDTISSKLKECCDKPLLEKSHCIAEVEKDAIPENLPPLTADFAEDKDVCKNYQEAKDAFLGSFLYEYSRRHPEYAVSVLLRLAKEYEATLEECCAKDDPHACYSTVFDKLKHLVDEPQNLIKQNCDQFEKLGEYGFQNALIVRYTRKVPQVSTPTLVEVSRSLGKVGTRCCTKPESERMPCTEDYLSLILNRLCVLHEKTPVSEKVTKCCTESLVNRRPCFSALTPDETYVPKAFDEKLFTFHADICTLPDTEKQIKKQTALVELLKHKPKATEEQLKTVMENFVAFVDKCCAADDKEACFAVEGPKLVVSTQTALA

Compound: O=S(=O)(O)CCCCCCSCc1cc(CSCCCCCCS(=O)(=O)O)cc(CSCCCCCCS(=O)(=O)O)c1 [B3C6SO3]
- CC50 at 48 h [1]: > 1000 µM
- Virucidal activity, HSV-2 (HSV-2 [2]): S
- Kd [3]: 14.2 µM
- IC50 (HSV-2 [4]): 487.3 ± 2.19 µM
- IC50 (H1N1 clinical): > 1000 µM
- IC50 (Flu B): > 1000 µM
- CC50 at 24 h [5]: > 1000 µM
- logP [6]: -2.39
- IC50 (HSV-2 [7]; Human alphaherpesvirus 2, Vero): 180 µM
- IC50 (HSV-2 [7]): 181 ± 2.06 µM
- K d (BSA) (BSA; 25 °C (Table 5)): no binding
- N (binding sites, BSA) (BSA; 25 °C (Table 5)): no binding
- ΔG (BSA) (BSA; 25 °C (Table 5)): no binding
- ΔH (BSA) (BSA; 25 °C (Table 5)): no binding
- –ΔTS (BSA) (BSA; 25 °C (Table 5)): no binding
- IC50 (HSV-2 [8]): 487 µM
- IC50 (H3N2; [13]): > 1000 µM
- IC50 (H3N2; [14]): > 1000 µM
- IC50 (H1N1N09): > 1000 µM
- CMC [9]: 882.2 ± 18.9 µM
- Virucidal activity, V-1 (HSV-1 [10]): S
- IC50 (HSV-1 [11]): 502.3 ± 2.15 µM

Compound: O=S(=O)(O)CCCSCc1cc2c(cc1CSCCCS(=O)(=O)O)OCCOCCOc1cc(CSCCCS(=O)(=O)O)c(CSCCCS(=O)(=O)O)cc1OCCOCCO2 [C4C3SO3]
- CC50 at 48 h [1]: > 1000 µM
- Virucidal activity, HSV-2 (HSV-2 [2]): S
- IC99 (HSV-2 [4]): 446 ± 1.1 µM
- IC50 (HSV-2 [4]): 173.4 ± 1.1 µM
- IC50 (Flu B): > 1000 µM
- CC50 at 24 h [5]: > 1000 µM
- logP [6]: -2.45
- IC50 (HSV-2 [7]; Human alphaherpesvirus 2, Vero): 69.1 ± 1.01 µM
- N (binding sites, BSA) (BSA; 25 °C (Table 5)): 0.5
- ΔG (BSA) (BSA; 25 °C (Table 5)): –5.73 kcal/mol
- ΔH (BSA) (BSA; 25 °C (Table 5)): –7.34 kcal/mol
- –ΔTS (BSA) (BSA; 25 °C (Table 5)): 1.61 kcal/mol
- Kd (BSA; 25 °C (Table 5), read-out: K d (BSA)): 63 µM
- -∆TS (BSA) (BSA; 25 °C (Table S3)): 1.61 kcal/mol
- N (BSA) (BSA; 25 °C (Table S3)): 0.5
- ∆G (BSA) (BSA; 25 °C (Table S3)): -5.73 kcal/mol
- ∆H (BSA) (BSA; 25 °C (Table S3)): -7.34 kcal/mol
- -∆TS (BSA) (BSA; 37 °C (Table S3)): 24.6 kcal/mol
- Kd (BSA; 37 °C (Table S3)): 52.1 µM
- N (BSA) (BSA; 37 °C (Table S3)): 0.397
- ∆G (BSA) (BSA; 37 °C (Table S3)): -6.08 kcal/mol
- ∆H (BSA) (BSA; 37 °C (Table S3)): -30.6 kcal/mol
- IC50 (HSV-2 [8]): 173.4 ± 1.1 µM
- IC50 (H3N2; [13]): > 1000 µM
- IC50 (H3N2; [14]): > 1000 µM
- IC50 (H1N1N09): > 1000 µM
- CMC [9]: 462.69 ± 57 µM
- Virucidal activity, V-1 (HSV-1 [10]): S
- IC50 (HSV-1 [11]): 551.9 ± 2 µM

Compound: O=S(=O)(O)OCCCCCCSCc1cc(CSCCCCCCOS(=O)(=O)O)cc(CSCCCCCCOS(=O)(=O)O)c1 [B3C6SO4]
- CC50 at 48 h [1]: > 1000 µM
- Kd [3]: 28.1 µM
- IC99 (HSV-2 [4]): 1328 ± 1.9 µM
- IC50 (HSV-2 [4]): 52.9 ± 1.9 µM
- IC50 (H1N1 clinical): > 1000 µM
- IC50 (Flu B): > 1000 µM
- CC50 at 24 h [5]: > 1000 µM
- logP [6]: -1.79
- IC50 (HSV-2 [12]): 78.4 µM
- IC50 (HSV-2 [7]; Human alphaherpesvirus 2, Vero): 56.9 ± 1.48 µM
- -∆TS (BSA) (BSA; 25 °C (Table S3)): 7.2 kcal/mol
- Kd (BSA; 25 °C (Table S3)): 7.27 µM
- N (BSA) (BSA; 25 °C (Table S3)): 1.69
- ∆G (BSA) (BSA; 25 °C (Table S3)): -7.29 kcal/mol
- ∆H (BSA) (BSA; 25 °C (Table S3)): -14.5 kcal/mol
- -∆TS (BSA) (BSA; 37 °C (Table S3)): 0.938 kcal/mol
- Kd (BSA; 37 °C (Table S3)): 1.4 µM
- N (BSA) (BSA; 37 °C (Table S3)): 1.3
- ∆G (BSA) (BSA; 37 °C (Table S3)): -7.99 kcal/mol
- ∆H (BSA) (BSA; 37 °C (Table S3)): -8.93 kcal/mol
- IC50 (HSV-2 [8]): 52.9 ± 1.9 µM
- IC50 (H3N2; [13]): > 1000 µM
- IC50 (H3N2; [14]): 346.9 ± 1.94 µM
- IC50 (H1N1N09): 346.9 ± 1.94 µM
- CMC [9]: 1390 ± 45.6 µM
- IC50 (HSV-1 [11]): 208 ± 31.4 µM
